According to EP0336976A1, “PHARMACEUTICAL PREPARATION FOR CURING MULTIPLE SCLEROSIS AND LATERAL A[…]” (VSESOJUZNY KARDIOLOGICHESKY NAUCHNY TSENTR AKADEMII …, priority 1987, dated 1989):
Where a SMILES comes first, the peptide text is derived from it. [ ]: non-standard residue; d: D form.

Key:
[1] = test system: Patienten mit zerebrospinaler Form der multiplen Sklerose; assay: Clinical trial in multiple sclerosis patients: neurological status scored in points (Kurtzke scale: neurological deficit and progression/disability scale), on top of basic therapy; format: in vivo, Menschen
Method: Das erfindungsgemässe Präparat für die Behandlung der multiplen Sklerose und der myotrophischen Lateralsklerose wurde in einer Klinik an Menschen erprobt.
Bei der multiplen Sklerose erfolgte die Behandlung mit dem angemeldeten Präparat unter Anwendung der Basistherapie, die die Vitamine der B-Gruppe, Glutaminsäure, Nikotinsäure, Zerebrolysin, Midokalm, und Essentiale einschliesst. Das erfindungsgemässe Präparat wurde den Patienten intramuskulär zu je I bis 5 mg des Wirkstoffes, der in I ml einer physiologischen Lösung aufgelöst wird, zweimal pro Tag innerhalb von 5 Tagen eingeführt.
Bei der Behandlung der multiplen Sklerose wurde die Wirkung des erfindungsgemässen Präparates mit der Wirkung von T-Aktivin verglichen, das unter Anwendung der gleichen wie bei der Behandlung mit dem angemeldeten Präparat Basistherapie eingeführt wurde. Das T-Aktivin führte man den Patienten intramuskulär einmal pro Tag zu je I ml I,0%iger Lösung innerhalb von 5 Tagen ein. Nach einer 7-tägigen Unterbrechung führte man das T-Aktivin in der gleichen dosis während 2 Tage ein.
(§1) Bei der Behandlung der multiplen Sklerose mit dem erfindungsgemässen Präparat und mit T-Aktivin verwendete man neben einer klinischen Analyse der neurologischen Symptome auch eine Methode der Registrierung von kurzlatenten erzeugten Hörpotentialen auf die akustische Stimulation. Die Dynamik der neurologischen Symptome bewertete man in Punkten nach der Kurzkschen Skale. Man führt die Analyse der Punkten-Summe nach der Skale des neurologischen Defizits durch sowie nach der Skale der Invalidisierung (sich verschlimmernde Entwicklung) unter Berücksichtigung der sozialen Adaptation des jeweiligen Patienten durch. Bei der Untersuchung der kurzlatenten erzeugten Hörpotentiale erfolgte die Summierung von 3000 Antworten und es wurden 7 Komponenten registriert, die den funktionellen Zustand folgender Pegel eines Höranalysators widerspiegeln: I - Schneke des Hörnervs, II -Kerne des Cochlearkomplexes, III- Nucleus der oberen Olive, IV - Nucleus der lateralen Schleife, V - Kerne der Höcker der Vierhügelplatte, VI - Kerne mittlerer Kniehöcker, VII - Kerne Auditus kortex. Alle Komponenten wurden nach den Werten der Zwischenpeakintervalle und den Relationen der Peakamplituden analysiert. Die Kontrollgruppe für die Untersuchung der kurzlatenten erzeugten Hörpotentiale bildeten I2 praktisch gesunde Personen.
(§2) Die Untersuchung der Patienten erfolgte vor der Verordnung der Präparate, in 5 und in I4 Tagen nach dem Beginn ihrer Verabreichung.
Hervorzuheben ist, dass bei den Patienten, denen das erfindungsgemässe Präparat und das T-Aktivin verordnet wurden, innnerhalb der letzten zwei Monate keine Dynamik im neurologischen Status nachgewiesen wurde. Das gab die Möglichkeit, die Verbesserung des Zustandes als Effekt von der Verordnung der Präparate zu betrachten.
Die Hauptgruppe der Patienten, die das erfindungsgemässe Präparat verabreicht bekamen, bestand aus 24 Personen (6 Männer und I8 Frauen) im alter von 20 bis 49 Jahren mit zerebrospinaler Form der multiplen Sklerose. Die Dauer der Erkrankung betrug von 2 bis 7 Jahren. Das erfindungsgemässe Präparat führe man den Patienten intramuskulär zu je I bis 2 mg zweimal am Tage innerhalb von 5 Tagen ein. Die Gruppe der Patienten, die das T-Aktivin bekam, bestand aus I4 Personen (6 Männer und 8 Frauen) im Alter von 23 bis 47 Jahren mit zerebrospinaler Form der multiplen Sklerose. Die Dauer der Erkrankung betrug von 2 bis 7 Jahren.
Das T-Aktivin führte man den patienten intramuskulär zu je I ml 0,I%iger Lösung einmal pro Tag innerhalb von 5 Tagen ein. […]
Bei der Einlieferung ins Krankenhaus wurden dem Patienten Vitamine BI und B₆, Glutaminsäure, innerhalb eines Monates Zerebrolysin verabreicht, durchgeführt wurden kurze Kuren mit Midokalm und Essentiale. […]

[2] = test system: Leitungsbahnen des Hirnstammes; assay: Recording of short-latency auditory evoked potentials on acoustic stimulation in multiple sclerosis patients; format: in vivo, Menschen; conditions: MS patients
Excerpt: as §1, §2
Die Hauptgruppe der Patienten, die das erfindungsgemässe Präparat verabreicht bekamen, bestand aus 24 Personen (6 Männer und I8 Frauen) im alter von 20 bis 49 Jahren mit zerebrospinaler Form der multiplen Sklerose. Die Dauer der Erkrankung betrug von 2 bis 7 Jahren. Das erfindungsgemässe Präparat führe man den Patienten intramuskulär zu je I bis 2 mg zweimal am Tage innerhalb von 5 Tagen ein. Die Gruppe der Patienten, die das T-Aktivin bekam, bestand aus I4 Personen (6 Männer und 8 Frauen) im Alter von 23 bis 47 Jahren mit zerebrospinaler Form der multiplen Sklerose. Die Dauer der Erkrankung betrug von 2 bis 7 Jahren. […]

[3] = test system: Patienten mit amyotrophischen Lateralsklerose; assay: Clinical trial in amyotrophic lateral sclerosis patients: course of the disease, on top of conventional nonspecific therapy; format: in vivo, Menschen; conditions: ALS
Toxicity (LD50) = conditions: in vivo; species and route not given; read-out: LD₅₀
[4] = patients with sekundärer Verschlimmerung, effect mainly am I5. Tag
[5] = patients: Leichter Grad, Am I5. Tag
[6] = patients: Remittierend, a) Verschlimmerung, Am I5. Tag
[7] = of 62 patients, listed as Präparat + Nichtspezifische Therapie
[8] = of 62 patients, pronounced plus moderate improvement

Structure (SMILES): CC(C)C[C@H](NC(=O)[C@H](Cc1ccccc1)NC(=O)CNC(=O)[C@@H](C)NC(=O)[C@@H](N)Cc1ccc(O)cc1)C(=O)N[C@@H](CCCNC(=N)N)C(=O)O [erfindungsgemässe Präparat, Tyr-D-Ala-Gly-Phe-Leu-Arg] (H-Y[dA]GFLR-OH)
- Punkte nach der Skale der sich verschlimmernden Entwicklung ([1]; Beispiel I, Patientin K., 46 years, progredient MS, after 5 days of I mg twice daily, before treatment 6): 4
- klinische Verbesserung, Anteil der Patienten ([1]; MS patients, whole group, after the course of treatment): 89%
- Verringerung der Summe der Punkte nach der Skale des neurologischen Defizits ([1]; patients with mittlerem Schweregrad, am 6. Tag): 4,3 Punkte
- Senkung des Indexes nach der Skale der sich verschlimmernden Entwicklung [1, 4]: 2,4 Punkte
- Verringerung der Summe der Punkte nach der Skale des neurologischen Defizits [1, 4]: 6,3 Punkte
- Gesamtpunktenzahl nach der Skala des neurologischen Defizits [1, 5]: 8,6±0,9 Punkte
- Index nach der Skala der sich verschlimmernden Entwicklung [1, 5]: 2,8±0,5 Punkte
- Index nach der Skala der sich verschlimmernden Entwicklung ([1]; patients: Leichter Grad, Vor der Behandlung (baseline)): 3,7±0,4 Punkte
- Index nach der Skala der sich verschlimmernden Entwicklung ([1]; patients: Mittlerer Grad, Am 6. Tag): 4,9±0,3 Punkte
- Index nach der Skala der sich verschlimmernden Entwicklung ([1]; patients: Mittlerer Grad, Am I5. Tag): 4,4±0,6 Punkte
- Index nach der Skala der sich verschlimmernden Entwicklung ([1]; patients: Remittierend, a) Verschlimmerung, Am 6. Tag): 3 Punkte
- Gesamtpunktenzahl nach der Skala des neurologischen Defizits [1, 6]: 5 Punkte
- Index nach der Skala der sich verschlimmernden Entwicklung [1, 6]: 2 Punkte
- Index nach der Skala der sich verschlimmernden Entwicklung ([1]; patients: Remittierend, a) Verschlimmerung, Vor der Behandlung (baseline)): 5 Punkte
- Index nach der Skala der sich verschlimmernden Entwicklung ([1]; patients: Remittierend, b) Remission, Am 6. Tag): 3,3±0,5 Punkte
- Index nach der Skala der sich verschlimmernden Entwicklung ([1]; patients: Remittierend, b) Remission, Am I5. Tag): 3,4±0,5 Punkte
- Index nach der Skala der sich verschlimmernden Entwicklung ([1]; patients: Remittierend, b) Remission, Vor der Behandlung (baseline)): 4,3±0,8 Punkte
- Index nach der Skala der sich verschlimmernden Entwicklung ([1]; patients: Remittierend, c) sekundäre Verschlimmerung, Am 6. Tag): 4,8±2,0 Punkte
- Index nach der Skala der sich verschlimmernden Entwicklung ([1]; patients: Remittierend, c) sekundäre Verschlimmerung, Am I5. Tag): 3,5±0,4 Punkte
- Verringerung des Index nach der Skale der Weiterentwicklung der Krankheit ([1]; single patient in acute state of MS, zum I5. Tag): 3 Punkte
- Verringerung der Summe der Punkte nach der Skale des neurologischen Defizits ([1]; whole group, in 5 Tagen nach dem Beginn der Behandlung): 2,9 Punkte
- Verringerung der Summe der Punkte nach der Skale des neurologischen Defizits ([1]; whole group, in I4 Tagen nach dem Beginn der Behandlung): 3,8 Punkte
- Differenzen der Latenzwerte III Peak-I Peak ([2]; Am 6. Tag): 2,22±0,05
- Differenzen der Latenzwerte III Peak-I Peak ([2]; Am I5. Tag): 2,20±0,06
- Verhältnis der Amplituden V Peak - I Peak ([2]; Am I5. Tag): 0,88±0,23
- Verbesserung Ausgeprägt, number of patients ([3]; of 62 patients): 8
- Verbesserung Mässig, number of patients ([3]; of 62 patients): 16
- Verbesserung Mässig, share of patients ([3]; of 62 patients): 26%
- keine Anzeichen einer sich verschlimmernden Entwicklung (stabiler Zustand oder Verbesserung), share of patients ([3]; of 62 patients): 84%
- Sich verschlimmernde Entwicklung, number of patients [3, 7]: 10
- Sich verschlimmernde Entwicklung, share of patients [3, 7]: 16%
- Verbesserung Ausgeprägt, share of patients [3, 7]: 13%
- Verbesserung des Zustandes, number of patients [3, 8]: 24 Personen
- Verbesserung des Zustandes, share of patients [3, 8]: 39%
- Fehlen der Dynamik, number of patients ([3]; of 62 patients, stable state): 28
- Fehlen der Dynamik, share of patients ([3]; of 62 patients, stable state): 45%
- keine Anzeichen einer sich verschlimmernden Entwicklung, number of patients ([3]; of 62 patients, stable state or improvement): 52 Personen
- sich verschlimmernde Entwicklung seltener im Vergleich zur Kontrollgruppe ([3]; preparation plus conventional therapy vs conventional therapy alone): 4,8 fache
- Parese in den Füssen ([3]; Beispiel 3, Patient, two 2-week courses of I mg i.m. twice daily, at admission 2 Punkte): 0 Punkte
- Paresegrad in proximalen Abschnitten von Beinen und Armen ([3]; Beispiel 4, Patient E., 4I years, two 2-week courses of 2 mg i.m. twice daily): 0 Punkte
- Parese der Extremitäten ([3]; Beispiel 5, Patient M., second stay, two 2-week courses of I mg i.m. twice daily): 0 Punkte
- LD50 (Toxicity (LD50)): 520 mg/kg
